# Measured values: patent US7101875B2, “Methods for treating arthritic disorders” (Wyeth, priority 2001, dated 2006)
# Test system: not given
# Assay: not given
# Settings: not given
row,Compound,melting point [°C]
1,"O=C(O)c1ccc(OCCc2c(CCNS(=O)(=O)Cc3ccc(Cl)c(Cl)c3)n(C(c3ccccc3)c3ccccc3)c3ccc(Cl)cc23)cc1F [Example 296, 4-{2-[1-benzhydryl-5-chloro-2-(2-{[(3,4-dichlorobenzyl)sulfonyl]amino}ethyl)-1H-indol-3-yl]ethoxy}-2-fluorobenzoic acid]",117 to 119
2,"CC(C)(Cc1ccc(S(=O)(=O)CCc2c(CCNS(=O)(=O)Cc3ccc(Cl)c(Cl)c3)n(C(c3ccccc3)c3ccccc3)c3ccc(Cl)cc23)cc1)C(=O)O [Example 298, 3-[4-({2-[1-benzhydryl-5-chloro-2-(2-{[(3,4-dichlorobenzyl)sulfonyl]amino}ethyl)-1H-indol-3-yl]ethyl}sulfonyl)phenyl]-2,2-dimethylpropanoic acid]",207 to 208
3,"O=C(O)c1ccc(OCCc2c(CCNS(=O)(=O)Cc3ccccc3Cl)n(C(c3ccccc3)c3ccccc3)c3ccc(Cl)cc23)cc1F [Example 297, 4-{2-[1-benzhydryl-5-chloro-2-(2-{[(2-chlorobenzyl)sulfonyl]amino}ethyl)-1H-indol-3-yl]ethoxy}-2-fluorobenzoic acid]",132 to 135

# Biological target: T1, cPLA2 (Homo sapiens, UniProt P47712)
# T1 sequence (P47712 1-749): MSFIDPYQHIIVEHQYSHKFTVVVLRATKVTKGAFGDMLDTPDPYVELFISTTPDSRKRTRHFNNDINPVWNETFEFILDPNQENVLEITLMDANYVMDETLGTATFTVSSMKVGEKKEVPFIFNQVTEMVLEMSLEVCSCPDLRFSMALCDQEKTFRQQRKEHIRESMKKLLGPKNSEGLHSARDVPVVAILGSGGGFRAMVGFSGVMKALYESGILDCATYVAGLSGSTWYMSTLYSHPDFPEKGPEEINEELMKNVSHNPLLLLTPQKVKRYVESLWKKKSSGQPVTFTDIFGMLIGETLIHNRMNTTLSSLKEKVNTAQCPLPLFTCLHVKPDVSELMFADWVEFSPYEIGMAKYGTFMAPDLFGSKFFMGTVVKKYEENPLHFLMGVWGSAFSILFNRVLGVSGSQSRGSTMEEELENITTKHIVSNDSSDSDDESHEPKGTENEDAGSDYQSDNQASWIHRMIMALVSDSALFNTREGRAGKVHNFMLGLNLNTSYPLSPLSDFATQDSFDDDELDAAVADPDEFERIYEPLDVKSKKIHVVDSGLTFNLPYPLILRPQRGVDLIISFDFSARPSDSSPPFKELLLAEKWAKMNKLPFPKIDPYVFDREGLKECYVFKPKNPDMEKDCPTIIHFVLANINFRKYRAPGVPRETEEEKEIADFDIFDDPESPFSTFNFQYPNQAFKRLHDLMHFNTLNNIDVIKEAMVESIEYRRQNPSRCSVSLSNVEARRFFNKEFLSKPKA
# Assay: Coumarine Assay (hydrolysis of 7-hydroxycoumarinyl 6-heptenoate by cPLA2, fluorometric)
# Assay type: biochemical
# Settings: 60 μM 7-hydroxycoumarinyl 6-heptenoate substrate, 4 μg cPLA2, pH 7.5, excitation 360 nm / emission 460 nm; read-out: Coumarin IC50
# Protocol: Inhibitors were mixed with 200 μL assay buffer (80 mM Heped, pH 7.5, 1 mM EDTA) containing 60 μM 7-hydroxycoumarinyl 6-heptenoate. The reaction was initiated by adding 4 μg cPLA2 in 50 μL assay buffer. Hydrolysis of the 7-hydroxycounarimyl 6-heptenoate ester was monitored in a fluorometer by exciting at 360 nm and monitoring emission at 460 nm. Enzyme activity is proportional to the increase in emission at 460 nm per minute. In the presence of a cPLA2 inhibitor, the rate of increase is less.
row,Compound,IC50 [nM]
1,"CC(C)Oc1cc(OCCc2c(CCNS(=O)(=O)Cc3ccc(Cl)c(Cl)c3)n(C(c3ccccc3)c3ccccc3)c3ccc(Cl)cc23)ccc1C(=O)O [Example 300, 4-{2-[1-benzhydryl-5-chloro-2-(2-{[(3,4-dichlorobenzyl)sulfonyl]amino}ethyl)-1H-indol-3-yl]ethoxy}-2-isopropoxybenzoic acid]",> 2000
2,4-{2-[1-Benzhydryl-5-chloro-2-{2-[({2-trifluoromethylsulfonylbenzene}-sulfonyl)amino]ethyl}-1H-indol-3-yl)propyl]benzoic acid [Example 208],240
3,2-{2-[1-Benzhydryl-5-chloro-2-(2-phenylmethanesulfonylamino-ethyl)-1H-indol-3-yl]-ethoxy}-benzoic acid [Example 283],500
4,"4-{2-[1-benzhydryl-5-chloro-2-(2-{[(2,6-dimethylbenzyl)sulfonyl]amino}ethyl)-1H-indol-3-yl]ethoxy}benzoic acid [Example 279]",160
5,COc1ccccc1SCS(=O)(=O)NCCc1c(CCOc2ccc(C(=O)O)cc2)c2cc(Cl)ccc2n1C(c1ccccc1)c1ccccc1 [Example 83],450
6,"Nc1ccccc1CS(=O)(=O)NCCc1cc(OCCc2cn(C(c3ccccc3)c3ccccc3)c3ccc(Cl)cc23)ccc1C(=O)O [Example 16, 2-(2-{[(2-Aminobenzyl)sulfonyl]amino}ethyl)-4-{2-[1-benzhydryl-5-chloro-1H-indol-3-yl]ethoxy}benzoic acid]",980
7,O=C(O)c1ccc(OCCc2c(CCNS(=O)(=O)Cc3ccc(Cl)c(Cl)n3)n(C(c3ccccc3)c3ccccc3)c3ccc(Cl)cc23)cc1 [Example 76],400
8,"4-[2-(1-benzhydryl-5-chloro-2-{2-[({2-[(3R,5S)-3,5-dimethylmorpholin-4-yl]ethyl}sulfonyl)amino]ethyl}-1H-indol-3-yl)ethoxy]benzoic acid [Example 250]",2100
9,"CC(Cc1ccc(C(=O)O)cc1)c1c(CCNS(=O)(=O)Cc2ccccc2[N+](=O)[O-])n(C(c2ccccc2)c2ccccc2)c2ccc(Cl)cc12 (stereo not drawn) [Example 56, 4-{2-[1-Benzhydryl-5-chloro-2-{2-[({2-nitrobenzyl}-sulfonyl)amino]ethyl}-1H-indol-3-yl)propyl]benzoic acid]",130
